From article PMC3885546, “Structural Determinants of the 5′-Methylthioinosine Specificity of Plasmodium Purine Nucleoside Phosphorylase” (PLoS ONE, 2014)
Changes are numbered by the printed parent chain. Numbers in names are those of the source. Like-named read-outs stand apart in the source and are kept apart here. Marks after values point to notes of the source that are not given here.

Assays:
P. falciparum [1] = tested on: P. falciparum; set-up: method as in PMID 22096507; conditions: Aotus model; cited from earlier work
TgPNPWT [2] = experiment: Inhibition by immucillins (literature values); format: biochemical, Toxoplasma gondii; conditions: TgPNP versus PfPNP
TgPNPWT [3] = conditions: TgPNP WT, ref Chaudhary, et al. [18], cited from earlier work
[4] = tested on: PfPNP versus mammalian PNP; set-up: method as in PMID 15576366; conditions: cited from earlier work
Pf Tyr160Phe PNP = target: T1, Pf Tyr160Phe PNP (Plasmodium falciparum, UniProt Q8T9Z7, Y160F); experiment: Inhibition by immucillins (initial and slow onset); format: biochemical; conditions: initial
T1 construct: made in house; host or cells: Escherichia coli Top 10
T1 sequence (Q8T9Z7 whole entry Y160F): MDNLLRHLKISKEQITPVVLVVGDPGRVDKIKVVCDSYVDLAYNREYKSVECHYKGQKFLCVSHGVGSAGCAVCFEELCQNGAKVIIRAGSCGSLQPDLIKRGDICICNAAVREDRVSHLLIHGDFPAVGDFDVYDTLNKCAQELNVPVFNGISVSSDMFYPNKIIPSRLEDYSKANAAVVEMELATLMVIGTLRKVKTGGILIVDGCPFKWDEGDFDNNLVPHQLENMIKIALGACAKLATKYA
Method: (§1) Kinetic assays were completed in 50 mM KH2PO4 at pH 7.4 measuring phosphorylysis of inosine or MTI by PNP in a coupled reaction with 60 milliunits/ml xanthine oxidase to convert hypoxanthine to uric acid. […] Assays were performed with excess substrate in the presence of inhibitors. Inhibition studies measured both initial (Ki) and slow onset inhibition (Ki*) for inhibitors. The initial onset inhibition was analyzed by using the following equation: ν ο = (k cat×S)/(K m(1+I/Ki)+S), ν ο is the steady state rate, k cat catalytic rate, S is substrate concentration, Km is Michealis constant for inosine, I is inhibitor concentration, and Ki is the equilibrium dissociation constant.

Pf V66I:V73I PNP = target: T2, Pf V66I:V73I PNP (Plasmodium falciparum, UniProt Q8T9Z7, V66I/V73I); experiment: Inhibition by immucillins (initial and slow onset); format: biochemical; conditions: initial
T2 construct: made in house; host or cells: Escherichia coli Top 10
T2 sequence (Q8T9Z7 whole entry V66I/V73I): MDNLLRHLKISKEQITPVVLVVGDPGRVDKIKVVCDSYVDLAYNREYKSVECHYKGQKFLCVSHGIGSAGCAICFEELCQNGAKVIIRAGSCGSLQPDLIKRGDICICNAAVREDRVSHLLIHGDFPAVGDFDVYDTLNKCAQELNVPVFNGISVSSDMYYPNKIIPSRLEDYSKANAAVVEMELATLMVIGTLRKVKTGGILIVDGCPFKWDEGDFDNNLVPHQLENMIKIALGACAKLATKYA
Method: as §1

Pf V66I:V73I:Y160F PNP = target: T3, Pf V66I:V73I:Y160F PNP (Plasmodium falciparum, UniProt Q8T9Z7, V66I/V73I/Y160F); experiment: Inhibition by immucillins (initial and slow onset); format: biochemical; conditions: initial
T3 construct: made in house; host or cells: Escherichia coli Top 10
T3 sequence (Q8T9Z7 whole entry V66I/V73I/Y160F): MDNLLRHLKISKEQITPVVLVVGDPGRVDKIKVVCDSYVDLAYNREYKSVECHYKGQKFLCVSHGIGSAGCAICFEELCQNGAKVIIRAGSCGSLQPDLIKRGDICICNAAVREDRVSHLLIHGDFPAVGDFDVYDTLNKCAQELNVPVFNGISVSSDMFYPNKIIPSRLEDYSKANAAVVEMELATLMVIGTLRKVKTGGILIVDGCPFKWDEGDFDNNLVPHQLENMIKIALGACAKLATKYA
Method: as §1

Pf Val66Ile PNP = target: T4, Pf Val66Ile PNP (Plasmodium falciparum, UniProt Q8I3X4, V66I); experiment: Inhibition by immucillins (initial and slow onset); format: biochemical; conditions: slow onset
T4 construct: made in house; host or cells: Escherichia coli Top 10
T4 sequence (Q8I3X4 whole entry V66I): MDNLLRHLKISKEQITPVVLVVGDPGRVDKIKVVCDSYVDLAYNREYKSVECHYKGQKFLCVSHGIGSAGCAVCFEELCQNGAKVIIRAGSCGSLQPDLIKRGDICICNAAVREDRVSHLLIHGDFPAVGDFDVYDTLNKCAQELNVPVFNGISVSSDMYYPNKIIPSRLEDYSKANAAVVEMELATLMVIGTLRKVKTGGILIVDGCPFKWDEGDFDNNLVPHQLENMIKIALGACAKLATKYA
Method: as §1

P. falciparum [5] = conditions: purine-rich environment of cultured red blood cells; cited from earlier work
[6] = target: the molecule itself; experiment: SEC; Superose 12 gel filtration, 0.1 ml of 1 mg/ml loaded, 20 mM HEPES, 50 mM KCl, 5 mM KH2PO4, 0.1 mM DTT, pH 7.4, 0.5 ml/min; self-association (hexamer)
[7] = target: the molecule itself; experiment: crystal structure; V66I:V73I:Y160F PfPNP with ImmH and phosphate, 2.8 Å, space group I4(1)32, 2 molecules in the asymmetric unit; hexamer as a trimer of dimers
[8] = substrate: OC[C@H]1O[C@@H](n2cnc3c(O)ncnc32)[C@H](O)[C@@H]1O; experiment: Substrate kinetics, xanthine oxidase coupled phosphorolysis assay; format: biochemical, Plasmodium falciparum; conditions: other: wild type PfPNP, substrate = label, 50 mM KH2PO4 pH 7.4, mean ± SD
Method: Kinetic assays were completed in 50 mM KH2PO4 at pH 7.4 measuring phosphorylysis of inosine or MTI by PNP in a coupled reaction with 60 milliunits/ml xanthine oxidase to convert hypoxanthine to uric acid. Formation of uric acid was measured at 293 nm wavelength (E293 = 12.9 mM^−1 cm^−1), [20]. In cases where activity for MTI was low, increased protein concentration (10 µg/ml) was used to check enzyme function. Assays were performed with excess substrate in the presence of inhibitors. Inhibition studies measured both initial (Ki) and slow onset inhibition (Ki*) for inhibitors. The initial onset inhibition was analyzed by using the following equation: ν ο = (k cat×S)/(K m(1+I/Ki)+S), ν ο is the steady state rate, k cat catalytic rate, S is substrate concentration, Km is Michealis constant for inosine, I is inhibitor concentration, and Ki is the equilibrium dissociation constant.

Question: With `Nc1nc2c(CN3C[C@H](CO)[C@@H](O)C3)c[nH]c2c(=O)[nH]1` [DADMe-Immucillin-G] as the molecule, how does the “efficacy against P. falciparum” value (P. falciparum [1]) read?
Answer: The value was “effective against P. falciparum in the Aotus model”.

Question: What does the source list for `CSC[C@H]1N[C@@H](c2c[nH]c3c(=O)[nH]cnc23)[C@H](O)[C@@H]1O` [MT-ImmH, 5′-methylthioimmucillin-H]?
Answer: less effective for TgPNP than for PfPNP (Ki*) (TgPNPWT [2]): more than 160 fold; Ki (TgPNPWT [3]; initial): 7100 nM; Ki (TgPNPWT [3]; slow onset): 290 nM; greater specificity for PfPNP versus mammalian PNP [4]: 100 fold

Question: Which results are given for `O=c1[nH]cnc2c([C@@H]3N[C@H](CO)[C@@H](O)[C@H]3O)c[nH]c12` [ImmH, Immucillin-H]?
Answer: Ki (Pf Tyr160Phe PNP): 0.93 nM; Ki (Pf V66I:V73I PNP): 270 nM; Ki (Pf V66I:V73I:Y160F PNP): 3.6 nM; Ki* (Pf Val66Ile PNP): (-) ^c; Ki (TgPNPWT [3]; initial): 450 nM; Ki (TgPNPWT [3]; slow onset): 2 nM; effect on P. falciparum (P. falciparum [5]): causes P. falciparum cell death by purine starvation

B1: Plasmodium falciparum purine nucleoside phosphorylase (PfPNP), wild type (enzyme, Plasmodium falciparum (3D7 strain))
chain: DNLLRHLKISKEQITPVVLVVGDPGRVDKIKVVCDSYVDLAYNREYKSVECHYKGQKFLCVSHGVGSAGCAVCFEELCQNGAKVIIRAGSCGSLQPDLIKRGDICICNAAVREDRVSHLLIHGDFPAVGDFDVYDTLNKCAQELNVPVFNGISVSSDMYYPNKIIPSRLEDYSKANAAVVEMELATLMVIGTLRKVKTGGILIVDGCPFKWDEGDFDNNLVPHQLENMIKIALGACAKLATKYA
notes: purine nucleoside phosphorylase of P. falciparum 3D7; also called PfPNP WT; wild-type PfPNP; source: E. coli Top 10, purified (Ni-NTA); not shown: c-Myc, C-terminal, kept; His6, C-terminal, kept
Question: For B1, which “stoichiometry N” value [6] is on record?
Answer: The value was 6.

B2: V66I:V73I:Y160F PfPNP (triple mutant Val66Ile:Val73Ile:Tyr160Phe) (enzyme)
chain: B1 chain with V65I, V72I, Y159F
notes: also called Pf V66I:V73I:Y160F; triple PfPNP mutant; source: E. coli Top 10, purified (Ni-NTA; Superdex 200 for larger scale); not shown: c-Myc, C-terminal, kept; His6, C-terminal, kept
Question: Which “stoichiometry N” value [7] does the source give for B2 here?
Answer: The value was 6.

B3: PfPNP (wild type) (Plasmodium falciparum 3D7) (protein)
chain: MDNLLRHLKISKEQITPVVLVVGDPGRVDKIKVVCDSYVDLAYNREYKSVECHYKGQKFLCVSHGVGSAGCAVCFEELCQNGAKVIIRAGSCGSLQPDLIKRGDICICNAAVREDRVSHLLIHGDFPAVGDFDVYDTLNKCAQELNVPVFNGISVSSDMYYPNKIIPSRLEDYSKANAAVVEMELATLMVIGTLRKVKTGGILIVDGCPFKWDEGDFDNNLVPHQLENMIKIALGACAKLATKYA
notes: made in house; host or cells: Escherichia coli Top 10
Question: For B3, which Km [8] is on record?
Answer: Its Km is 11 ± 5 µM.

Question: And the kcat [8]?
Answer: Its kcat is 1.7 ± 0.7 s⁻¹.

Question: What about the kcat/Km [8] of the same molecule?
Answer: Its kcat/Km is 150000 M⁻¹ s⁻¹.
